From patent US20240293362A1, “Soluble Epoxide Hydrolase Inhibitors and Use Thereof” (Board of Trustees of Michigan State University, priority 2021, published 2024)

SMILES	melting point [°C]
CCC(=O)N1CC[C@H](NC(=O)Nc2ccc(OC(F)(F)F)cc2)[C@H](F)C1 [Example 46, 1-((3R,4S)-3-fluoro-1-propionylpiperidin-4-yl)-3-(4-(trifluoromethoxy)phenyl)urea]	245 to 246
CCC(=O)N1CC[C@@H](NC(=O)Nc2ccc(OC(F)(F)F)cc2)[C@@H](F)C1 [Example 45, 1-((3S,4R)-3-fluoro-1-propionylpiperidin-4-yl)-3-(4-(trifluoromethoxy)phenyl)urea]	231 to 232
CCC(=O)N1CC[C@H](NC(=O)Nc2ccc(OC(F)(F)F)cc2)C[C@H]1C [Example 48, 1-((2R,4S)-2-methyl-1-propionylpiperidin-4-yl)-3-(4-(trifluoromethoxy)phenyl)urea]	175 to 176
CCC(=O)N1CCC(NC(=O)Nc2ccc(OC(F)(F)F)cc2)C(F)(F)C1 (stereo not drawn) [Example 44, 1-(3,3-difluoro-1-propionylpiperidin-4-yl)-3-(4-(trifluoromethoxy)phenyl)urea]	223 to 224
CCC(=O)N1CC[C@H](NC(=O)Nc2ccc(OC(F)(F)F)cc2)[C@@H](F)C1 [Example 47, 1-((3S,4S)-3-fluoro-1-propionylpiperidin-4-yl)-3-(4-(trifluoromethoxy)phenyl)urea]	180 to 181
CCC(=O)NCC1CCN(C(=O)Nc2ccc(OC(F)(F)F)cc2)C1 (stereo not drawn) [Example 12, 3-(propanamidomethyl)-N-[4-(trifluoromethoxy)phenyl]pyrrolidine-1-carboxamide]	166 to 167
